According to ChEMBL document CHEMBL2146453, “Synthesis of novel ursolic acid heterocyclic derivatives with improved abilities of antiproliferation and induction of p53, p21waf1 and NOXA in pancreatic cancer cells” (Bioorg Med Chem, 2012):

System: ASPC1
Assay: Cytotoxicity against human AsPC1 cells after 72 hrs by MTT assay
Type: functional, cell-based
Details: ASPC1, 72 h

In order of rising IC50:
1. C[C@H]1[C@H](C)CC[C@]2(C(=O)n3cnnc3)CC[C@]3(C)C(=CC[C@@H]4[C@@]5(C)C/C(=C/n6cnnc6)C(=O)C(C)(C)[C@@H]5CC[C@]43C)[C@H]12  3.9 µM
2. C[C@H]1[C@H](C)CC[C@]2(C(=O)n3ccnc3)CC[C@]3(C)C(=CC[C@@H]4[C@@]5(C)C/C(=C/n6ccnc6)C(=O)C(C)(C)[C@@H]5CC[C@]43C)[C@H]12  5.1 µM
3. COC(=O)[C@]12CC[C@@H](C)[C@H](C)[C@H]1C1=CC[C@@H]3[C@@]4(C)C/C(=C/O)C(=O)C(C)(C)[C@@H]4CC[C@@]3(C)[C@]1(C)CC2  7.2 µM
4. COC(=O)[C@]12CC[C@@H](C)[C@H](C)[C@H]1C1=CC(=O)[C@@H]3[C@@]4(C)C/C(=C/O)C(=O)C(C)(C)[C@@H]4CC[C@@]3(C)[C@]1(C)CC2  9 µM
5. C[C@H]1[C@H](C)CC[C@]2(C(=O)n3cnnc3)CC[C@]3(C)C(=CC(=O)[C@@H]4[C@@]5(C)CCC(=O)C(C)(C)[C@@H]5CC[C@]43C)[C@H]12  9.9 µM
6. CC(=O)O[C@H]1CC[C@]2(C)[C@H]3C(=O)C=C4[C@@H]5[C@@H](C)[C@H](C)CC[C@]5(C(=O)n5cnnc5)CC[C@@]4(C)[C@]3(C)CC[C@H]2C1(C)C  10.2 µM
7. Cc1nccn1/C=C1/C[C@]2(C)[C@H]3CC=C4[C@@H]5[C@@H](C)[C@H](C)CC[C@]5(C(=O)n5ccnc5C)CC[C@@]4(C)[C@]3(C)CC[C@H]2C(C)(C)C1=O  11.3 µM
8. C[C@H]1[C@H](C)CC[C@]2(C(=O)n3ccnc3)CC[C@]3(C)C(=CC(=O)[C@@H]4[C@@]5(C)CCC(=O)C(C)(C)[C@@H]5CC[C@]43C)[C@H]12  11.7 µM
9. C[C@H]1[C@H](C)CC[C@]2(C(=O)O)CC[C@]3(C)C(=CC[C@@H]4[C@@]5(C)C/C(=C/O)C(=O)C(C)(C)[C@@H]5CC[C@]43C)[C@H]12  13.4 µM
10. C[C@H]1[C@H](C)CC[C@]2(C(=O)n3ccnc3)CC[C@]3(C)C(=CC[C@@H]4[C@@]5(C)CCC(=O)C(C)(C)[C@@H]5CC[C@]43C)[C@H]12  15.2 µM
11. CC(=O)O[C@H]1CC[C@]2(C)[C@H]3C(=O)C=C4[C@@H]5[C@@H](C)[C@H](C)CC[C@]5(C(=O)n5ccnc5C)CC[C@@]4(C)[C@]3(C)CC[C@H]2C1(C)C  15.3 µM
12. COC(=O)[C@]12CC[C@@H](C)[C@H](C)[C@H]1C1=CC[C@@H]3[C@@]4(C)CC[C@H](O)C(C)(C)[C@@H]4CC[C@@]3(C)[C@]1(C)CC2 [METHYL URSOLATE]  17.7 µM
13. C[C@H]1[C@H](C)CC[C@]2(C(=O)n3cnnc3)CC[C@]3(C)C(=CC[C@@H]4[C@@]5(C)CCC(=O)C(C)(C)[C@@H]5CC[C@]43C)[C@H]12  19.2 µM
14. Cc1nccn1C(=O)[C@]12CC[C@@H](C)[C@H](C)[C@H]1C1=CC[C@@H]3[C@@]4(C)CCC(=O)C(C)(C)[C@@H]4CC[C@@]3(C)[C@]1(C)CC2  19.6 µM
15. CC(=O)O[C@H]1CC[C@]2(C)[C@H]3CC=C4[C@@H]5[C@@H](C)[C@H](C)CC[C@]5(C(=O)n5cnnc5)CC[C@@]4(C)[C@]3(C)CC[C@H]2C1(C)C  23.3 µM
16. C[C@H]1[C@H](C)CC[C@]2(C(=O)O)CC[C@]3(C)C(=CC[C@@H]4[C@@]5(C)CCC(=O)C(C)(C)[C@@H]5CC[C@]43C)[C@H]12 [URSONIC ACID]  24.5 µM
17. CC(=O)O[C@H]1CC[C@]2(C)[C@H]3C(=O)C=C4[C@@H]5[C@@H](C)[C@H](C)CC[C@]5(C(=O)O)CC[C@@]4(C)[C@]3(C)CC[C@H]2C1(C)C [11-OXOURSOLIC ACID ACETATE]  33.5 µM
18. C[C@H]1[C@H](C)CC[C@]2(C(=O)O)CC[C@]3(C)C(=CC(=O)[C@@H]4[C@@]5(C)CCC(=O)C(C)(C)[C@@H]5CC[C@]43C)[C@H]12  54.9 µM
19. CC(=O)O[C@H]1CC[C@]2(C)[C@H]3CC=C4[C@@H]5[C@@H](C)[C@H](C)CC[C@]5(C(=O)O)CC[C@@]4(C)[C@]3(C)CC[C@H]2C1(C)C [O-ACETYLURSOLIC ACID]  71 µM
